The OligoGym collection
After the bases stand the sugars from the 5' end (letter, count) and the backbone: PS all phosphorothioate, else s phosphorothioate and o phosphodiester by linkage. Methylation of C is not given here. e = 2'-O-(2-methoxyethyl) (MOE); k = constrained ethyl (cEt); d = 2'-deoxy (DNA); m = 2'-O-methyl

Molecular target: HSD17B13
Settings: ASO, HepaRG

TTCTTATGTAATAGCC (sugars k3 d9 k3 e1, PS)
target mRNA inhibition (0.02 µM): 17% | target mRNA inhibition (0.078 µM): 25% | target mRNA inhibition (0.313 µM): 57% | target mRNA inhibition (1 µM): 73% | target mRNA inhibition (1.25 µM): 76% | target mRNA inhibition (5 µM): 85%

AGAAATTCACCTTGAC (sugars k3 d1 m1 d8 k3, PS)
target mRNA inhibition (1 µM): 9%

AACAGTCTTAAACCTT (sugars k3 d10 k3, PS)
target mRNA inhibition (1 µM): 82%

AGCTUTTGTCCACCTT (sugars k3 d1 m1 d8 k3, PS)
target mRNA inhibition (1 µM): 72%

AATTGATACACCAATG (sugars k3 d10 k3, PS)
target mRNA inhibition (1 µM): 55%

TAGAAACTGCTCCTCA (sugars k3 d10 k3, PS)
target mRNA inhibition (1 µM): 32%

ATGAGGTTTTGATACC (sugars kkdddddddddkekek, PS)
target mRNA inhibition (1 µM): 51%

CTACACTAATATTGAG (sugars k3 d10 k3, PS)
target mRNA inhibition (1 µM): 20%

CCACTATCAGAACAGT (sugars k3 d10 k3, PS)
target mRNA inhibition (1 µM): 31%

TCTACATGGATCCAAC (sugars k3 d10 k3, PS)
target mRNA inhibition (1 µM): 26%

TAATCTTGAGGCAGGA (sugars k3 d10 k3, PS)
target mRNA inhibition (1 µM): 17%

AGGTATGTCATACTTC (sugars k3 d10 k3, PS)
target mRNA inhibition (1 µM): 5%

CCTGATTTAGAGAGCG (sugars k3 d10 k3, PS)
target mRNA inhibition (1 µM): 42%

GGAGCTAGATACTCAA (sugars k3 d10 k3, PS)
target mRNA inhibition (1 µM): 42%

TGAGAATTTAAGAGGG (sugars k3 d10 k3, PS)
target mRNA inhibition (1 µM): 25%

CAAGTAAGGTAAAGTC (sugars k3 d10 k3, PS)
target mRNA inhibition (1 µM): 33%

AAGTTAGCCCCCAGGA (sugars kkdddddddddkekek, PS)
target mRNA inhibition (1 µM): 12%

GAGTCGGATTATTTTT (sugars k3 d10 k3, PS)
target mRNA inhibition (1 µM): 44%

CCCAACGCAACAGTTT (sugars k3 d10 k3, PS)
target mRNA inhibition (0.02 µM): 4% | target mRNA inhibition (0.078 µM): 26% | target mRNA inhibition (0.313 µM): 54% | target mRNA inhibition (1 µM): 66% | target mRNA inhibition (1.25 µM): 78% | target mRNA inhibition (5 µM): 92%

TCACAAAGTCCCTGAC (sugars k3 d10 k3, PS)
target mRNA inhibition (1 µM): 11%

GACCAAGTAGCTTACA (sugars k3 d10 k3, PS)
target mRNA inhibition (1 µM): 28%

CATTAGATGGTAAGGA (sugars k3 d10 k3, PS)
target mRNA inhibition (1 µM): 32%

GGTCACCTTTCATAAT (sugars kkdddddddddkekek, PS)
target mRNA inhibition (1 µM): 52%

CAAGACATTCTAGCCT (sugars k3 d10 k3, PS)
target mRNA inhibition (1 µM): 58%

AATTGATACACCAATG (sugars k3 d9 k3 e1, PS)
target mRNA inhibition (1 µM): 53%

ATGTATGAGGTCTCCG (sugars k3 d10 k3, PS)
target mRNA inhibition (1 µM): 63%

TCTTAAGATACCCAGG (sugars k3 d9 k3 e1, PS)
target mRNA inhibition (1 µM): 48%

TTGCAGAAATTCACCT (sugars k3 d10 k3, PS)
target mRNA inhibition (1 µM): 36%

AGCATTGATTCGAAAC (sugars k3 d10 k3, PS)
target mRNA inhibition (1 µM): 70%

CTAGGGAAATCTTTCA (sugars k3 d9 k3 e1, PS)
target mRNA inhibition (1 µM): 55%

AAAATGTCCTAGGATG (sugars k3 d10 k3, PS)
target mRNA inhibition (1 µM): 0%

GCTGTAAGAGTCAGTA (sugars kkdddddddddkekek, PS)
target mRNA inhibition (1 µM): 42%

TAGAATAGTCTTCAGC (sugars k3 d1 m1 d8 k3, PS)
target mRNA inhibition (1 µM): 30%

TCCTATATACATCCAA (sugars k3 d10 k3, PS)
target mRNA inhibition (1 µM): 45%

TAACTTCATAGTGGAC (sugars k3 d10 k3, PS)
target mRNA inhibition (1 µM): 76%

AAGAATAGGAGAGTCT (sugars k3 d10 k3, PS)
target mRNA inhibition (1 µM): 70%

ATCAATGCCTTAGCCC (sugars k3 d10 k3, PS)
target mRNA inhibition (1 µM): 38%

CTGTGTTAGCTTTAAT (sugars k3 d9 k3 e1, PS)
target mRNA inhibition (1 µM): 50%

ATGTAATAGCCAGTAC (sugars k3 d1 m1 d8 k3, PS)
target mRNA inhibition (1 µM): 42%

ACAGGATAGAGCACAT (sugars k3 d10 k3, PS)
target mRNA inhibition (1 µM): 44%

AGTATGTGAACTCCGT (sugars k3 d10 k3, PS)
target mRNA inhibition (0.02 µM): 0% | target mRNA inhibition (0.078 µM): 5% | target mRNA inhibition (0.313 µM): 30% | target mRNA inhibition (1 µM): 81% | target mRNA inhibition (1.25 µM): 67% | target mRNA inhibition (5 µM): 86%

GCTATAACTGGAAGGA (sugars k3 d10 k3, PS)
target mRNA inhibition (1 µM): 58%

AATAATAGCTCTATTG (sugars k3 d1 m1 d8 k3, PS)
target mRNA inhibition (1 µM): 16%

CATCTTAAGATACCCA (sugars kkdddddddddkekek, PS)
target mRNA inhibition (1 µM): 59%

CAGTUTTCCTCATGAT (sugars k3 d1 m1 d8 k3, PS)
target mRNA inhibition (1 µM): 0%

CGTTTTGGGCTAATGA (sugars kkdddddddddkekek, PS)
target mRNA inhibition (1 µM): 37%

GATTAAGGCAAAGATC (sugars k3 d10 k3, PS)
target mRNA inhibition (1 µM): 25%

ATGTGAAGAGCTGGTA (sugars k3 d1 m1 d8 k3, PS)
target mRNA inhibition (1 µM): 26%

AGAGGCTAGGGAAATC (sugars k3 d1 m1 d8 k3, PS)
target mRNA inhibition (1 µM): 48%

GTCCATGCAAAAGCAT (sugars k3 d10 k3, PS)
target mRNA inhibition (1 µM): 62%

CCTTCATCTAACTAAC (sugars k3 d10 k3, PS)
target mRNA inhibition (1 µM): 30%

GACAATGGTTGCCACT (sugars k3 d10 k3, PS)
target mRNA inhibition (1 µM): 63%

TTTAGGGCAAACCTTG (sugars k3 d10 k3, PS)
target mRNA inhibition (1 µM): 67%

GTAAACTGTATGCCTC (sugars k3 d10 k3, PS)
target mRNA inhibition (0.02 µM): 5% | target mRNA inhibition (0.078 µM): 30% | target mRNA inhibition (0.313 µM): 43% | target mRNA inhibition (1 µM): 74% | target mRNA inhibition (1.25 µM): 78% | target mRNA inhibition (5 µM): 86%

CTTAAACCTTCCCTGT (sugars k3 d10 k3, PS)
target mRNA inhibition (1 µM): 22%

AGTTTAGAAGTCAAAC (sugars k3 d10 k3, PS)
target mRNA inhibition (1 µM): 23%

GAAGAAGGACTTTCAT (sugars k3 d10 k3, PS)
target mRNA inhibition (1 µM): 40%

TGCAGTTATTAGAAGT (sugars k3 d10 k3, PS)
target mRNA inhibition (1 µM): 46%

TATTTAGCATTGCCTG (sugars k3 d10 k3, PS)
target mRNA inhibition (1 µM): 12%

TTAAGGATCATTGCAG (sugars k3 d10 k3, PS)
target mRNA inhibition (1 µM): 14%

GAACAATATGGGATGA (sugars k3 d9 k3 e1, PS)
target mRNA inhibition (1 µM): 52%

TATACCTGTTGCCTAG (sugars k3 d10 k3, PS)
target mRNA inhibition (1 µM): 11%

CTAAAGCAGGCTACTT (sugars k3 d10 k3, PS)
target mRNA inhibition (1 µM): 32%

ATACGACTTCCTTCTA (sugars k3 d10 k3, PS)
target mRNA inhibition (1 µM): 44%

AGCTTTTGTCCACCTT (sugars kkdddddddddkekek, PS)
target mRNA inhibition (1 µM): 62%

AAAGACTTTGAGACTC (sugars k3 d9 k3 e1, PS)
target mRNA inhibition (1 µM): 67%

TGCAGCATTGATTCGA (sugars k3 d1 m1 d8 k3, PS)
target mRNA inhibition (1 µM): 65%

TAGCTGTGCACTCATT (sugars k3 d9 k3 e1, PS)
target mRNA inhibition (0.02 µM): 3% | target mRNA inhibition (0.078 µM): 0% | target mRNA inhibition (0.313 µM): 8% | target mRNA inhibition (1 µM): 66% | target mRNA inhibition (1.25 µM): 57% | target mRNA inhibition (5 µM): 76%

GCTCCATAATAATAGC (sugars k3 d1 m1 d8 k3, PS)
target mRNA inhibition (1 µM): 16%

GCACCGTTTTGGGCTA (sugars k3 d9 k3 e1, PS)
target mRNA inhibition (1 µM): 45%

GTCACCTTTCATAATG (sugars k3 d1 m1 d8 k3, PS)
target mRNA inhibition (1 µM): 40%

TACATTACAGCCTTAG (sugars k3 d10 k3, PS)
target mRNA inhibition (0.02 µM): 0% | target mRNA inhibition (0.078 µM): 2% | target mRNA inhibition (0.313 µM): 15% | target mRNA inhibition (1 µM): 75% | target mRNA inhibition (1.25 µM): 71% | target mRNA inhibition (5 µM): 85%

GAACACTTTCACTGGG (sugars k3 d10 k3, PS)
target mRNA inhibition (1 µM): 0%

TCAAAGCCTGTTGGAT (sugars k3 d10 k3, PS)
target mRNA inhibition (1 µM): 35%

CAACAGTTTAGATTGC (sugars k3 d10 k3, PS)
target mRNA inhibition (1 µM): 66%

AGCTTATCGAGTTTAG (sugars k3 d10 k3, PS)
target mRNA inhibition (1 µM): 54%

GTTGATATTCTGTGGC (sugars k3 d1 m1 d8 k3, PS)
target mRNA inhibition (1 µM): 68%

CAGTAAAATTATGCCT (sugars k3 d10 k3, PS)
target mRNA inhibition (1 µM): 38%

TTTAATACGACTTCCT (sugars k3 d10 k3, PS)
target mRNA inhibition (0.02 µM): 0% | target mRNA inhibition (0.078 µM): 0% | target mRNA inhibition (0.313 µM): 27% | target mRNA inhibition (1 µM): 72% | target mRNA inhibition (1.25 µM): 68% | target mRNA inhibition (5 µM): 83%

TTAGTTAGAATAGTCT (sugars k3 d10 k3, PS)
target mRNA inhibition (1 µM): 8%

AGAAATTCACCTTGAC (sugars kkdddddddddkekek, PS)
target mRNA inhibition (1 µM): 33%

ATAGTCCATGCAAAAG (sugars k3 d9 k3 e1, PS)
target mRNA inhibition (1 µM): 29%

GAATCATTCAGTAGCT (sugars k3 d10 k3, PS)
target mRNA inhibition (1 µM): 65%

ATAACCTAATAACTAC (sugars k3 d10 k3, PS)
target mRNA inhibition (1 µM): 26%

GCTTTGAAGACAATAC (sugars k3 d10 k3, PS)
target mRNA inhibition (1 µM): 42%

ATTGATACACCAATGC (sugars k3 d10 k3, PS)
target mRNA inhibition (1 µM): 66%

ACAGATTGGAATGCTA (sugars k3 d9 k3 e1, PS)
target mRNA inhibition (0.02 µM): 18% | target mRNA inhibition (0.078 µM): 21% | target mRNA inhibition (0.313 µM): 38% | target mRNA inhibition (1 µM): 68% | target mRNA inhibition (1.25 µM): 62% | target mRNA inhibition (5 µM): 76%

TACGACTTCCTTCTAA (sugars k3 d10 k3, PS)
target mRNA inhibition (1 µM): 67%

TAAGCTGAGAGTTCTA (sugars k3 d10 k3, PS)
target mRNA inhibition (1 µM): 64%

ATGCAAAAGCATTCTA (sugars k3 d10 k3, PS)
target mRNA inhibition (1 µM): 50%

AGTTTATATGGATTTG (sugars k3 d10 k3, PS)
target mRNA inhibition (1 µM): 67%

GCACCCCATGGATCTA (sugars k3 d10 k3, PS)
target mRNA inhibition (1 µM): 35%

GTGTAGAATTGTCTGT (sugars k3 d10 k3, PS)
target mRNA inhibition (1 µM): 42%

ATATAGAGGGTCCACT (sugars k3 d10 k3, PS)
target mRNA inhibition (1 µM): 18%

TATAGACTGGGTAGGA (sugars kkdddddddddkekek, PS)
target mRNA inhibition (1 µM): 38%

AGTAATTGCATCTGCT (sugars k3 d10 k3, PS)
target mRNA inhibition (1 µM): 42%
